“And” between values parts separate entries of the source, which are not always exact repeats. Identical values can stand only once. “Also recorded” adds a separate entry of the source.
Tests used:
[1] = tested on: Bugula neritina larvae; experiment: Bioassay against bryozoan larvae; assay type: in vivo; conditions: crude rank, best (1) to worst (8)
Method: Bugula neritina (Phylum Bryozoa, Class Gymnolaemata, Order Cheilostomatida) is a cosmopolitan species of bryozoan, commonly found in most marine fouling communities. The larvae are brooded in ovicells found on the stem of the colonies. When released, the larva will settle quickly on most surfaces, within a few minutes. At 24° C., the settled larvae forms the one-cell ancestrula, and after 48 hours, the lophophore has developed and extended for feeding.
Adult colonies of Bugula neritina were collected from fouling communities growing on the submerged pontoons on a floating fish farm located off Changi, Singapore. Adult animals were maintained in the open-circulation aquarium at St John's island marine laboratory, Singapore. The adults were kept in total darkness for 24 hours. On exposure to light, larvae were released after half an hour. […] Because the larvae will settle quickly, larvae were pipetted directly into test wells in 1 ml of seawater using a graduated glass pipette.
4 replicates were done for each treatment. After 24 hours, larvae were scored as settled, swimming or dead/deformed. The assay plates were usually kept for another 24 hours and checked again, to ascertain that the settled larvae had developed into viable colonies with lophophores. Two trials were repeated for each compound.
Bioassays were carried out using the method described above, in July 2003 during the peak spawning season for Bugula.

[2] = tested on: marine bacteria (26 strains); experiment: Disk inhibition assay; assay type: cell-based, marine bacteria isolated from Singapore fouling communities
Method in brief: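 Tablets or capsule powders suspended in sterile water at 2 mg ml^−1 and loaded onto disks; antibiotic discs (Amp, Ery, Str, Tet) served as comparison. Disks placed on swabbed lawns on Marine Agar, incubated overnight in the dark at 30° C. Zone of clearing diameter measured by calipers; three replicates on three occasions.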

[3] = tested on: biofilm bacteria (strains 4, 9, 14, 20, 27, 28); experiment: Effect of pharmaceuticals on adhesion of bacteria to plastic / biofilm formation on NTC and TC plates; assay type: cell-based, marine bacteria isolated from Singapore fouling communities
Method: Commercial forms of pharmaceuticals were used as previously described. […] These samples were sonicated for at least 1 min and these fine suspensions were used as initial stock solutions.
For studies of bacterial adhesion, the pharmaceuticals were first sterilized by soaking in absolute alcohol (Merck) for half an hour. Ethanol was removed by air-drying with air passed through 0.25 μm pore size syringe filter (Sartorius, Germany). Stock solutions were concentrations of 100 μg ml−1 in SDI.
The effect of pharmaceuticals on bacterial adhesion was analyzed using a modified microplate method adapted from Shea and Williamson (1990). This method employs a combination of staining attached bacteria with crystal violet, releasing the stain with sodium desoxycholate, and measuring the resulting absorbance of the crystal violet.
Detailed results for six selected strains are presented here: strains 4, 9, 14, 20, 27, 28. The bacterial strains were grown in Marine Broth (Pronadisa, Spain) overnight, in the dark, at 28° C. on a rotary shaker (150 rpm) in 5 ml centrifuge tubes (Falcon). Cells were harvested by centrifugation (1500×g, 10 min) and resuspended in sterile seawater (SSW). SSW was prepared by filtering seawater through a 0.2 μm pore size filter (Sartorius) followed by autoclaving. The cells were centrifuged and resuspended once more in SSW. The concentration of resuspended cells was adjusted to A600=1.0 using a spectrophotometer (Beckman DU530, USA).
Flat bottom 96 well polystyrene (hydrophobic, Falcon 351172) (=NTC) and tissue-culture treated polystyrene (hydrophilic, Falcon 353072) (=TC) microplates were used in the analyses. Each test was performed in triplicate. Two sets of experiments were conducted. […] For the control and blank wells, 25 ul of SDI were added. For wells containing pharmaceuticals, 25 ul of the respective pharmaceutical at a concentration of 100 ug ml−1 were added. This was immediately followed by the addition of 75 ul of bacterial suspension. To blanks were added 75 ul of SSW.
The bacterial cells in suspension were allowed to attach for 2 h at 28° C. Unattached cells were removed by aspiration using a plate washer (Tecan, Austria) and wells were rinsed three times with 200 ul of SSW each time. The attached cells were stained with 200 ul of crystal violet solution (0.1% w/v in deionized water) in each well for 5 min. After removing the stain using the plate washer, the wells were rinsed twice with 300 ul of SDI each time. Sodium desoxycholate (200 ul) solution (2% w/v in deionized water) was added to each well to extract the crystal violet from the attached stained cells for 10 min. The absorbance of the crystal violet was read at 590 nm using a microplate reader (Sunrise, Tecan, Austria).
Results of the adhesion assay were obtained by the difference in absorbance readings between wells containing bacterial cells and the mean of absorbance of those containing the SSW only. The effect of the pharmaceuticals on bacterial adhesion was determined by the examining the differences in absorbance between the wells containing the pharmaceuticals+bacteria and the bacteria. The significance was compared using T-test.

Cc1cc2c(s1)Nc1ccccc1N=C2N1CCN(C)CC1 [ZPX, olanzapine]
Prevention of settlement of Bugula larvae [1]: 6
Antibiotic activity against marine bacteria [2]: did not have any appreciable antibiotic activity against marine bacteria and 8
Effect on formation of bacterial biofilms on NTC and TC plates ([3]; 25 ug ml−1, NTC = untreated polystyrene, TC = tissue-culture treated, strains 4, 9, 14, 20, 27, 28): prevented biofilm formation for all 6 strains in the NTC plates, and slightly reduced the biofilm formation in strains 4 on the TC plates; also recorded: marked reduction of biofilm growth for all strains on NTC, but only a slight reduction for strain 4 on TC
Prevention of formation of biofilm ([3]; crude rank, best (1) to worst (8)): 1

Reference: patent US20060110456A1, “Method for biocidal and/or biostatic treatment and compositions therefor” (NATIONAL UNIVERSITY OF SINGAPORE, priority 2004, published 2006)
